Test results from patent US9328122B2, “7-substituted Hanfangichin B derivative, and preparation method and use thereof” (HANGZHOU BENSHENG PHARMACEUTICAL CO., LTD., priority 2012, dated 2016).
Values after ≈ are worked out from the molar mass of the structure shown.

Assays:
[1] = test system: K562/ADR (K562adr, drug-resistant chronic myeloid leukemia) cells; assay: MTT cell growth inhibition, leukemia cells; assay type: cell-based; conditions: Homo sapiens, K562/ADR, 72 h, MTT
Description: (§1) Leukemia cell lines: leukemia cell lines: K562adr (drug-resistant, chronic myeloid leukemia, CML), NB4 (acute promyelocytic leukemia, AML), Kasumi-1 (acute myeloid leukemia M2 type, AML-M2), Jurkat (acute lymphoblastic leukemia, ALL), all of which were donated by Cancer Research Institute of Zhejiang University, China; and H9 (acute lymphoblastic leukemia, ALL), which was purchased from China Center for Type Culture Collection.
(§2) Reagents: The standard sample of fangchinoline (FAN) was purchased from Ci Yuan Biotechnology Co., Ltd., Shaanxi, China; and the 7-substituted fangchinoline derivatives according to the present invention.
(§3) 6000 well-growing leukemia cells were obtained and inoculated into wells of a 96-well cell culture plate. The culture medium was a RPMI-1640 cell culture medium containing 10% fetal bovine serum. After adding the 7-substituted fangchinoline derivatives of different concentrations the next day and mixing uniformly, the plate was placed in a carbon dioxide cell incubator (5% CO2) at 37° C. and incubating for 72 hours. Then the viable cell concentration was determined by the MTT method.

[2] = test system: NB4 (acute promyelocytic leukemia) cells; assay: MTT cell growth inhibition, leukemia cells; assay type: cell-based; conditions: Homo sapiens, NB4, 72 h, MTT
Description: as §1, §2, §3

[3] = test system: RPMI 8226 (multiple myeloma) cells; assay: MTT cell growth inhibition, multiple myeloma cells; assay type: cell-based, human; conditions: Homo sapiens, RPMI 8226, 72 h, MTT
Procedure: Myeloma cell lines: RPMI8226 (multiple myeloma), purchased from Fuxiang Bio-tech Co. Ltd., Shanghai, China.
as §3, with “well-growing” for “well-growing leukemia”, “incubated” for “incubating”

[4] = test system: CNE (nasopharyngeal carcinoma) cells; assay: MTT cell growth inhibition, solid tumor cells; assay type: cell-based, human; conditions: Homo sapiens, CNE, 72 h, MTT
Description: (§4) Hep-2 (laryngeal carcinoma), A549 (human lung cancer), CaES-17 (esophageal cancer cell), PC-3 (prostate cancer), CNE (nasopharyngeal carcinoma cell) and SK-OV-3 (ovarian cancer cell), all of which were purchased from China Center For Type Culture Collection; RKO (human colon adenocarcinoma cell), MGC-803 (human gastric cancer cell), MG-63 (osteosarcoma), and U87-MG (malignant glioma cell), all of which were purchased from Fuxiang Bio-tech Co. Ltd., Shanghai, China; PANC-1 (pancreatic cancer), Becap37 (human breast cancer cell), Hela (human cervical cancer cell) and Hep G2 (human liver cancer cell), all of which were donated by Cancer Research Institute of Zhejiang University, China.
as §3, with “human solid tumor” for “leukemia”, “DMEM High Glucose” for “a RPMI-1640”, “serum. The plate was placed in a carbon dioxide cell incubator (5% CO2) at 37° C. and incubated for 24 hours.” for “serum.”, “added with” for “adding the”, “concentration” for “concentrations the next day”, “incubated” for “incubating”

[5] = test system: CaEs-17 (esophageal cancer) cells; assay: MTT cell growth inhibition, solid tumor cells; assay type: cell-based, human; conditions: Homo sapiens, CaEs17, CaEs-17, 72 h, MTT
Description: as §4
as §3, with “human solid tumor” for “leukemia”, “DMEM High Glucose” for “a RPMI-1640”, “serum. The plate was placed in a carbon dioxide cell incubator (5% CO2) at 37° C. and incubated for 24 hours.” for “serum.”, “added with” for “adding the”, “concentration” for “concentrations the next day”, “incubated” for “incubating”

[6] = test system: PANC-1 (pancreatic cancer) cells; assay: MTT cell growth inhibition, solid tumor cells; assay type: cell-based, human; conditions: Homo sapiens, PANC-1, 72 h, MTT
Description: as §4
as §3, with “human solid tumor” for “leukemia”, “DMEM High Glucose” for “a RPMI-1640”, “serum. The plate was placed in a carbon dioxide cell incubator (5% CO2) at 37° C. and incubated for 24 hours.” for “serum.”, “added with” for “adding the”, “concentration” for “concentrations the next day”, “incubated” for “incubating”

[7] = test system: PC-3 (prostate cancer) cells; assay: MTT cell growth inhibition, solid tumor cells; assay type: cell-based, human; conditions: Homo sapiens, PC-3, 72 h, MTT
Description: as §4
as §3, with “human solid tumor” for “leukemia”, “DMEM High Glucose” for “a RPMI-1640”, “serum. The plate was placed in a carbon dioxide cell incubator (5% CO2) at 37° C. and incubated for 24 hours.” for “serum.”, “added with” for “adding the”, “concentration” for “concentrations the next day”, “incubated” for “incubating”

[8] = test system: SK-OV-3 (ovarian cancer) cells; assay: MTT cell growth inhibition, solid tumor cells; assay type: cell-based, human; conditions: Homo sapiens, SK-OV-3, 72 h, MTT
Description: as §4
as §3, with “human solid tumor” for “leukemia”, “DMEM High Glucose” for “a RPMI-1640”, “serum. The plate was placed in a carbon dioxide cell incubator (5% CO2) at 37° C. and incubated for 24 hours.” for “serum.”, “added with” for “adding the”, “concentration” for “concentrations the next day”, “incubated” for “incubating”

[9] = test system: A549 (human lung cancer) cells; assay: MTT cell growth inhibition, solid tumor cells; assay type: cell-based; conditions: Homo sapiens, A549, 72 h, MTT
Description: as §4
as §3, with “human solid tumor” for “leukemia”, “DMEM High Glucose” for “a RPMI-1640”, “serum. The plate was placed in a carbon dioxide cell incubator (5% CO2) at 37° C. and incubated for 24 hours.” for “serum.”, “added with” for “adding the”, “concentration” for “concentrations the next day”, “incubated” for “incubating”

[10] = test system: Becap-37 (human breast cancer) cells; assay: MTT cell growth inhibition, solid tumor cells; assay type: cell-based; conditions: Homo sapiens, Becap-37, 72 h, MTT
Description: as §4
as §3, with “human solid tumor” for “leukemia”, “DMEM High Glucose” for “a RPMI-1640”, “serum. The plate was placed in a carbon dioxide cell incubator (5% CO2) at 37° C. and incubated for 24 hours.” for “serum.”, “added with” for “adding the”, “concentration” for “concentrations the next day”, “incubated” for “incubating”

[11] = test system: Hela (human cervical cancer) cells; assay: MTT cell growth inhibition, solid tumor cells; assay type: cell-based; conditions: Homo sapiens, Hela, 72 h, MTT
Description: as §4
as §3, with “human solid tumor” for “leukemia”, “DMEM High Glucose” for “a RPMI-1640”, “serum. The plate was placed in a carbon dioxide cell incubator (5% CO2) at 37° C. and incubated for 24 hours.” for “serum.”, “added with” for “adding the”, “concentration” for “concentrations the next day”, “incubated” for “incubating”

[12] = test system: Hep G2 (human liver cancer) cells; assay: MTT cell growth inhibition, solid tumor cells; assay type: cell-based; conditions: Homo sapiens, HepG2, Hep G2, 72 h, MTT
Description: as §4
as §3, with “human solid tumor” for “leukemia”, “DMEM High Glucose” for “a RPMI-1640”, “serum. The plate was placed in a carbon dioxide cell incubator (5% CO2) at 37° C. and incubated for 24 hours.” for “serum.”, “added with” for “adding the”, “concentration” for “concentrations the next day”, “incubated” for “incubating”

[13] = test system: Hep-2 (laryngeal carcinoma) cells; assay: MTT cell growth inhibition, solid tumor cells; assay type: cell-based; conditions: Homo sapiens, Hep-2, 72 h, MTT
Description: as §4
as §3, with “human solid tumor” for “leukemia”, “DMEM High Glucose” for “a RPMI-1640”, “serum. The plate was placed in a carbon dioxide cell incubator (5% CO2) at 37° C. and incubated for 24 hours.” for “serum.”, “added with” for “adding the”, “concentration” for “concentrations the next day”, “incubated” for “incubating”

[14] = test system: MG-63 (osteosarcoma) cells; assay: MTT cell growth inhibition, solid tumor cells; assay type: cell-based; conditions: Homo sapiens, MG-63, 72 h, MTT
Description: as §4
as §3, with “human solid tumor” for “leukemia”, “DMEM High Glucose” for “a RPMI-1640”, “serum. The plate was placed in a carbon dioxide cell incubator (5% CO2) at 37° C. and incubated for 24 hours.” for “serum.”, “added with” for “adding the”, “concentration” for “concentrations the next day”, “incubated” for “incubating”

[15] = test system: MGC-803 (human gastric cancer) cells; assay: MTT cell growth inhibition, solid tumor cells; assay type: cell-based; conditions: MGC-803, 72 h, MTT
Description: as §4
as §3, with “human solid tumor” for “leukemia”, “DMEM High Glucose” for “a RPMI-1640”, “serum. The plate was placed in a carbon dioxide cell incubator (5% CO2) at 37° C. and incubated for 24 hours.” for “serum.”, “added with” for “adding the”, “concentration” for “concentrations the next day”, “incubated” for “incubating”

[16] = test system: RKO (human colon adenocarcinoma) cells; assay: MTT cell growth inhibition, solid tumor cells; assay type: cell-based; conditions: Homo sapiens, RKO, 72 h, MTT
Description: as §4
as §3, with “human solid tumor” for “leukemia”, “DMEM High Glucose” for “a RPMI-1640”, “serum. The plate was placed in a carbon dioxide cell incubator (5% CO2) at 37° C. and incubated for 24 hours.” for “serum.”, “added with” for “adding the”, “concentration” for “concentrations the next day”, “incubated” for “incubating”

[17] = test system: U87-MG (malignant glioma) cells; assay: MTT cell growth inhibition, solid tumor cells; assay type: cell-based; conditions: Homo sapiens, U-87 MG, U87-MG, 72 h, MTT
Description: as §4
as §3, with “human solid tumor” for “leukemia”, “DMEM High Glucose” for “a RPMI-1640”, “serum. The plate was placed in a carbon dioxide cell incubator (5% CO2) at 37° C. and incubated for 24 hours.” for “serum.”, “added with” for “adding the”, “concentration” for “concentrations the next day”, “incubated” for “incubating”

tumor = assay: Antitumor activity compared with fangchinoline, overall statement; assay type: cell-based; conditions: tumor type not specified

COc1ccc2cc1Oc1ccc(cc1)C[C@H]1c3cc(c(OC)cc3CCN1C)Oc1c(OCC3CC3)c(OC)cc3c1[C@H](C2)N(C)CC3 [BS-FC-208]
IC50 ([1]; read-out: IC50): 0.28 µg/mL (≈ 0.422 µM)
IC90 ([1]; read-out: IC90): 2.35 µg/mL (≈ 3.55 µM)
IC50 ([2]; read-out: IC50): 0.48 µg/mL (≈ 0.724 µM)
IC90 ([2]; read-out: IC90): 2.48 µg/mL (≈ 3.74 µM)
IC50 ([3]; read-out: IC50): 0.13 µg/mL (≈ 0.196 µM)
IC90 ([3]; read-out: IC90): 0.5 µg/mL (≈ 0.754 µM)
IC50 ([4]; read-out: IC50): 2.7 µg/mL (≈ 4.07 µM)
IC90 ([4]; read-out: IC90): 6 µg/mL (≈ 9.05 µM)
IC50 ([5]; read-out: IC50): 1.79 µg/mL (≈ 2.7 µM)
IC90 ([5]; read-out: IC90): 6.87 µg/mL (≈ 10.4 µM)
IC50 ([6]; read-out: IC50): 2.87 µg/mL (≈ 4.33 µM)
IC90 ([6]; read-out: IC90): 8.31 µg/mL (≈ 12.5 µM)
IC50 ([7]; read-out: IC50): 3.07 µg/mL (≈ 4.63 µM)
IC90 ([7]; read-out: IC90): 5.91 µg/mL (≈ 8.92 µM)
IC50 ([8]; read-out: IC50): 3.77 µg/mL (≈ 5.69 µM)
IC90 ([8]; read-out: IC90): 7.85 µg/mL (≈ 11.8 µM)
IC50 ([9]; read-out: IC50): 2.51 µg/mL (≈ 3.79 µM)
IC90 ([9]; read-out: IC90): 13.1 µg/mL (≈ 19.7 µM)
IC50 ([10]; read-out: IC50): 2.35 µg/mL (≈ 3.55 µM)
IC90 ([10]; read-out: IC90): 5.55 µg/mL (≈ 8.37 µM)
IC50 ([11]; read-out: IC50): 1.74 µg/mL (≈ 2.63 µM)
IC90 ([11]; read-out: IC90): 4 µg/mL (≈ 6.03 µM)
IC50 ([12]; read-out: IC50): 1.94 µg/mL (≈ 2.93 µM)
IC90 ([12]; read-out: IC90): 5.95 µg/mL (≈ 8.98 µM)
IC50 ([13]; read-out: IC50): 3.27 µg/mL (≈ 4.93 µM)
IC90 ([13]; read-out: IC90): 8.05 µg/mL (≈ 12.1 µM)
IC50 ([14]; read-out: IC50): 1.6 µg/mL (≈ 2.41 µM)
IC90 ([14]; read-out: IC90): 2.5 µg/mL (≈ 3.77 µM)
IC50 ([15]; read-out: IC50): 1.49 µg/mL (≈ 2.25 µM)
IC90 ([15]; read-out: IC90): 5.98 µg/mL (≈ 9.02 µM)
IC50 ([16]; read-out: IC50): 1.64 µg/mL (≈ 2.47 µM)
IC90 ([16]; read-out: IC90): 4.64 µg/mL (≈ 7 µM)
IC50 ([17]; read-out: IC50): 1.99 µg/mL (≈ 3 µM)
IC90 ([17]; read-out: IC90): 7.48 µg/mL (≈ 11.3 µM)
antitumor activity compared with that of fangchinoline (tumor): significantly superior
